Test results reported in ChEMBL document CHEMBL3046025, “Fungitoxic Properties of N-Phenylformamidoximes in Control of Benzimidazole-Resistant Isolates of Fungi” (1992).
Activity calls are given as the source filed them. The rule behind the calls is not given here.

How the values were obtained:
Botrytis cinerea [1] = assay: Antifungal activity against Benzimidalzole-resistant Botryotinia fuckeliana isolate Bc-44 infected kidney bean leaves at 50 ppm 24 hr post-infection measured after 3 days; format: functional
Cercospora beticola [2] = assay: Antifungal activity against Benzimidalzole-resistant Cercospora beticola isolate Cb-19 infected in sugar beet seedlings at 3.1 ppm 24 hr-post inoculation; format: functional
Cercospora beticola [3] = assay: Ratio of EC50 for Benzimidalzole-sensitive Cercospora beticola isolate 22-5 to EC50 for Benzimidalzole-resistant Cercospora beticola isole Cb-19; format: functional
Cercospora beticola [4] = assay: Antifungal activity against Benzimidalzole-sensitive Cercospora beticola isolate 22-5 at 0.001 to 1000 ppm after 14 days by agar dilution method; format: functional, organism-based
Botrytis cinerea [5] = assay: Antifungal activity against Benzimidalzole-resistant Botryotinia fuckeliana isolate Bc-44 at 0.001 to 1000 ppm after 3 days by agar dilution method; format: functional, organism-based
Cercospora beticola [6] = assay: Ratio of EC50 for Benzimidalzole-sensitive Cercospora beticola isolate 22-5 to EC50 for Benzimidalzole-resistant Cercospora beticola isolate 49-4; format: functional
Botrytis cinerea [7] = assay: Antifungal activity against Benzimidalzole-resistant Botryotinia fuckeliana isolate Bc-44 infected compound-treated kidney bean leaves at 3.1 ppm after 4 days; format: functional
Cercospora beticola [8] = assay: Ratio of EC50 for Benzimidalzole-resistant Cercospora beticola isolate 18-11 to EC50 for Benzimidalzole-resistant Cercospora beticola isole Cb-19; format: functional
Cercospora beticola [9] = assay: Ratio of EC50 for Benzimidalzole-sensitive Cercospora beticola isolate 18-1 to EC50 for Benzimidalzole-resistant Cercospora beticola isole Cb-19; format: functional
Cercospora beticola [10] = assay: Ratio of EC50 for Benzimidalzole-resistant Cercospora beticola isolate 18-11 to EC50 for Benzimidalzole-resistant Cercospora beticola isole 28-8; format: functional
Botrytis cinerea [11] = assay: Antifungal activity against Benzimidalzole-resistant Botryotinia fuckeliana isolate Bc-44 infected compound-treated kidney bean leaves at 50 ppm after 4 days; format: functional
Botrytis cinerea [12] = assay: Antifungal activity against Benzimidalzole-resistant Botryotinia fuckeliana isolate Bc-31 at 0.001 to 1000 ppm after 3 days by agar dilution method; format: functional, organism-based
Cercospora beticola [13] = assay: Antifungal activity against Benzimidalzole-resistant Cercospora beticola isolate 20-2 at 0.001 to 1000 ppm after 14 days by agar dilution method; format: functional, organism-based
Cercospora beticola [14] = assay: Antifungal activity against Benzimidalzole-resistant Cercospora beticola isolate Cb-19 infected in compound-treated sugar beet seedlings at 200 ppm after 12 days; format: functional
Cercospora beticola [15] = assay: Antifungal activity against Benzimidalzole-resistant Cercospora beticola isolate Cb-19 infected in sugar beet seedlings at 50 ppm 24 hr-post inoculation; format: functional
Botrytis cinerea [16] = assay: Ratio of EC50 for Benzimidalzole-sensitive Botryotinia fuckeliana isolate Bc-3 to EC50 for Benzimidalzole-resistant Botryotinia fuckeliana isolate Bc-31; format: functional
Cercospora beticola [17] = assay: Antifungal activity against Benzimidalzole-resistant Cercospora beticola isolate Cb-19 at 0.001 to 1000 ppm after 14 days by agar dilution method; format: functional, organism-based
Cercospora beticola [18] = assay: Ratio of EC50 for […] to EC50 for Benzimidalzole-resistant Cercospora beticola isole Cb-19; format: functional
Botrytis cinerea [19] = assay: Antifungal activity against Benzimidalzole-resistant Botryotinia fuckeliana isolate Bc-44 infected kidney bean leaves at 200 ppm applied as soil drench 3 days prior to inoculation; format: functional
Cercospora beticola [20] = assay: Antifungal activity against Benzimidalzole-resistant Cercospora beticola isolate 6-13 at 0.001 to 1000 ppm after 14 days by agar dilution method; format: functional, organism-based
Botrytis cinerea [21] = assay: Ratio of EC50 for Benzimidalzole-resistant Botryotinia fuckeliana isolate Bc-40 to EC50 for Benzimidalzole-resistant Botryotinia fuckeliana isolate Bc-44; format: functional
Cercospora beticola [22] = assay: Ratio of EC50 for Benzimidalzole-sensitive Cercospora beticola isolate 22-5 to EC50 for Benzimidalzole-resistant Cercospora beticola isolate 1-3; format: functional
Botrytis cinerea [23] = assay: Ratio of EC50 for Benzimidalzole-resistant Botryotinia fuckeliana isolate Bc-20 to EC50 for Benzimidalzole-resistant Botryotinia fuckeliana isolate Bc-44; format: functional
Botrytis cinerea [24] = assay: Antifungal activity against Benzimidalzole-sensitive Botryotinia fuckeliana isolate Bc-9 infected compound-treated kidney bean leaves at 200 ppm after 4 days; format: functional
Cercospora beticola [25] = assay: Antifungal activity against Benzimidalzole-sensitive Cercospora beticola isolate 18-1 infected in compound-treated sugar beet seedlings at 200 ppm after 12 days; format: functional
Cercospora beticola [26] = assay: Antifungal activity against Benzimidalzole-resistant Cercospora beticola isolate 18-2 infected in compound-treated sugar beet seedlings at 50 ppm after 12 days; format: functional
Cercospora beticola [27] = assay: Ratio of EC50 for Benzimidalzole-resistant Cercospora beticola isolate 20-2 to EC50 for Benzimidalzole-resistant Cercospora beticola isolate 1-3; format: functional
Cercospora beticola [28] = assay: Antifungal activity against Benzimidalzole-resistant Cercospora beticola isolate 1-3 at 0.001 to 1000 ppm after 14 days by agar dilution method; format: functional, organism-based
Cercospora beticola [29] = assay: Ratio of EC50 for Benzimidalzole-resistant Cercospora beticola isolate 6-13 to EC50 for Benzimidalzole-resistant Cercospora beticola isole Cb-19; format: functional
Cercospora beticola [30] = assay: Antifungal activity against Benzimidalzole-resistant Cercospora beticola isolate 49-4 at 0.001 to 1000 ppm after 14 days by agar dilution method; format: functional, organism-based
Cercospora beticola [31] = assay: Antifungal activity against Benzimidalzole-resistant Cercospora beticola isolate 18-2 infected in compound-treated sugar beet seedlings at 12.5 ppm after 12 days; format: functional
Cercospora beticola [32] = assay: Ratio of EC50 for Benzimidalzole-resistant Cercospora beticola isolate 6-13 to EC50 for Benzimidalzole-resistant Cercospora beticola isolate 49-4; format: functional
Botrytis cinerea [33] = assay: Ratio of EC50 for Benzimidalzole-sensitive Botryotinia fuckeliana isolate Bc-9 to EC50 for Benzimidalzole-resistant Botryotinia fuckeliana isolate Bc-31; format: functional
Botrytis cinerea [34] = assay: Antifungal activity against Benzimidalzole-resistant Botryotinia fuckeliana isolate Bc-44 infected kidney bean leaves at 50 ppm treated as foliar application followed by incubation for 7 days in green house condition; format: functional
Cercospora beticola [35] = assay: Antifungal activity against Benzimidalzole-resistant Cercospora beticola isolate Cb-19 infected in compound-treated sugar beet seedlings at 12.5 ppm after 12 days; format: functional
Cercospora beticola [36] = assay: Antifungal activity against Benzimidalzole-resistant Cercospora beticola isolate Cb-19 infected in sugar beet seedlings at 200 ppm 24 hr-post inoculation; format: functional
Cercospora beticola [37] = assay: Ratio of EC50 for Benzimidalzole-resistant Cercospora beticola isolate 6-13 to EC50 for Benzimidalzole-resistant Cercospora beticola isole 28-8; format: functional
Botrytis cinerea [38] = assay: Antifungal activity against Benzimidalzole-resistant Botryotinia fuckeliana isolate Bc-44 infected kidney bean leaves at 3.1 ppm treated as foliar application followed by incubation for 7 days in green house condition; format: functional
Cercospora beticola [39] = assay: Antifungal activity against Benzimidalzole-resistant Cercospora beticola isolate Cb-19 infected in sugar beet seedlings at 200 ppm treated as foliar application 7 days prior to inoculation; format: functional
Cercospora beticola [40] = assay: Ratio of EC50 for […] to EC50 for Benzimidalzole-resistant Cercospora beticola isole 28-8; format: functional
Cercospora beticola [41] = assay: Antifungal activity against Benzimidalzole-resistant Cercospora beticola isolate Cb-19 infected in sugar beet seedlings at 12.5 ppm 24 hr-post inoculation; format: functional
Cercospora beticola [42] = assay: Ratio of EC50 for Benzimidalzole-resistant Cercospora beticola isolate 18-11 to EC50 for Benzimidalzole-resistant Cercospora beticola isolate 1-3; format: functional
Botrytis cinerea [43] = assay: Ratio of EC50 for Benzimidalzole-resistant Botryotinia fuckeliana isolate Bc-40 to EC50 for Benzimidalzole-resistant Botryotinia fuckeliana isolate Bc-31; format: functional

C#CCOc1cc(N/C=N/OC)cc(Cl)c1OCC#C
Activity (Botrytis cinerea [1]): 100% | Activity (Cercospora beticola [2]): 54% | Ratio EC50 (Cercospora beticola [3]): > 1000 | Activity (Cercospora beticola [4]): inactive | Activity (Botrytis cinerea [5]): Active | Ratio EC50 (Cercospora beticola [6]): > 1000 | Activity (Botrytis cinerea [7]): 100% | Ratio EC50 (Cercospora beticola [8]): > 1000 | Ratio EC50 (Cercospora beticola [9]): > 1000 | Ratio EC50 (Cercospora beticola [10]): > 1000 | Activity (Botrytis cinerea [11]): 100% | Activity (Botrytis cinerea [12]): Active | Activity (Cercospora beticola [13]): inactive | Activity (Cercospora beticola [14]): 100% | Activity (Cercospora beticola [15]): 100% | Ratio EC50 (Botrytis cinerea [16]): > 1000 | Activity (Cercospora beticola [17]): Active | Ratio EC50 (Cercospora beticola [18]): > 1000 | Activity (Botrytis cinerea [19]): 77% | Activity (Cercospora beticola [20]): inactive | Ratio EC50 (Botrytis cinerea [21]): > 1000 | Ratio EC50 (Cercospora beticola [22]): > 1000 | Ratio EC50 (Botrytis cinerea [23]): > 1000 | Activity (Botrytis cinerea [24]): 7% | Activity (Cercospora beticola [25]): 0% | Activity (Cercospora beticola [26]): 100% | Ratio EC50 (Cercospora beticola [27]): > 1000 | Activity (Cercospora beticola [28]): Active | Ratio EC50 (Cercospora beticola [29]): > 1000 | Activity (Cercospora beticola [30]): Active | Activity (Cercospora beticola [31]): 100% | Ratio EC50 (Cercospora beticola [32]): > 1000 | Ratio EC50 (Botrytis cinerea [33]): > 1000 | Activity (Botrytis cinerea [34]): 90% | Activity (Cercospora beticola [35]): 100% | Activity (Cercospora beticola [36]): 100% | Ratio EC50 (Cercospora beticola [37]): > 1000 | Activity (Botrytis cinerea [38]): 31% | Activity (Cercospora beticola [39]): 100% | Ratio EC50 (Cercospora beticola [40]): > 1000 | Activity (Cercospora beticola [41]): 91% | Ratio EC50 (Cercospora beticola [42]): > 1000 | Ratio EC50 (Botrytis cinerea [43]): > 1000
